Results taken from article PMC9973354 (mBio, 2022).
Values after ≈ are worked out from the molar mass of the structure shown.

Legend:
Type in all cases: cell-based, Pseudomonas aeruginosa
PA14 ΔfpvA mutants = assay: Growth phenotypes of deletion mutants, ΔfpvA mutants; conditions: 64 μg/mL DSX, 10:90
From the text: (§1) PA14, ΔfpvA, ΔfpvB, and ΔfpvA ΔfpvB strains treated with TS (A) and DSX (B) in 10:90. Green indicates growth, and white indicates no growth. Growth is expressed as percent of control. The PA14 ΔfpvA ΔfpvB strain complemented with pHERD20T, fpvA, or fpvB treated with TS (C) and DSX (D) in 10:90. […] All experiments are averaged from three independent biological replicates. Blue indicates growth and white indicates no growth. (H) Summary of growth phenotypes of WT PA14 and combinations of single, double, triple, and quadruple deletion mutants in fpvA, fpvB, fiuA, and foxA. […] Green indicates growth, whereas no growth is indicated in white. […] Representative plates are shown.
(§2) If there were no transporters for a particular siderophore, the mutant would fail to grow due to iron restriction.

[1] = tested on: PA14 ΔfpvA ΔfpvB pHERD20T-fpvB; assay: MIC assay, ΔfpvA ΔfpvB complemented with fpvB; conditions: complementation with fpvB, arabinose induction
Experimental: (§3) The ΔfpvA ΔfpvB mutant was complemented in trans with pHERD20T-fpvA or pHERD20T-fpvB. pHERD20T is an arabinose-inducible vector with expression driven by the PBAD promoter under the control of AraC ([30]).
(§4) MIC assays were conducted as previously described ([13], [14]). Overnight cultures were grown in LB from a glycerol stock at 37°C with shaking (200 rpm). Subcultures in 10:90 (1:100 dilution) were cultured for 4 h. Cells were adjusted to an optical density at 600 nm (OD600) of 0.1/500 in 10:90. All compounds were serially diluted 2-fold in dimethyl sulfoxide (DMSO) or H2O at 75× the final concentration. Plates were sealed to prevent evaporation and incubated at 37°C overnight in a shaking incubator (200 rpm). The next day, the OD600 was determined with a plate reader (Thermo Scientific) and normalized to percent of growth of the vehicle control after subtracting the OD600 from blank media.

PA14 ΔfpvA mutant [2] = assay: Growth curves with DSX and siderophores, ΔfpvA; conditions: DSX 64 μg/mL or pyoverdine 10 μg/mL alone, 20 h, 10:90
Experimental: (§5) Supplementary file : FIG S1 (A) FpvB is expressed in WT PA14 and the ΔfpvA mutant grown in 10:90. PilF was used as a loading control for outer membrane proteins. (B) FpvA is expressed from WT PA14 grown in 10:90. […] PilF was used as a loading control for outer membrane proteins. (C) Growth curves of PA14 and mutants with DSX and different siderophores in 10:90. PA14, ΔfpvA, ΔfpvB, ΔfpvA ΔfpvB, and ΔpvdA ΔpchA strain growth. Blue indicates control, purple indicates treatment with 64 μg/mL DSX, yellow indicates treatment with 10 μg/mL pyoverdine (PA14), and red indicates treatment with 64 μg/mL DSX and 10 μg/mL pyoverdine (PA14). (D) ΔfpvA, ΔfpvA ΔfpvB, and ΔpvdA ΔpchA strain growth. Blue indicates control, purple indicates treatment with 64 μg/mL DSX, grey indicates treatment with 10 μg/mL ferrichrome, and red indicates treatment with 64 μg/mL DSX and 10 μg/mL ferrichrome. (E) ΔfpvA, ΔfpvA ΔfpvB, and ΔpvdA ΔpchA strain growth. […] Download FIG S1, EPS file, 8.5 MB.
(§6) Another explanation for the susceptibility of the ΔfpvA mutant to DSX is that the mutant produces less pyoverdine compared to WT cells due to loss of the signaling cascade that controls siderophore production in response to its binding to FpvA ([25]). To differentiate whether the fpvA mutant was susceptible to DSX because of reduced pyoverdine production or because FpvB was a poor pyoverdine transporter, we treated the WT, ΔfpvA, ΔfpvB, and ΔfpvA ΔfpvB strains with DSX (64 μg/mL) without and with exogenous pyoverdine (10 μg/mL) for 20 h (Fig. 1; see also Fig. S1C). Growth of the ΔfpvA mutant should be restored if there are functional pyoverdine transporters. […] The growth of the ΔfpvA ΔfpvB mutant was inhibited by DSX and pyoverdine, confirming previously published results ([18]).
(§7) As a control, a ΔpvdA ΔpchA mutant unable to make pyoverdine and pyochelin was also tested. Growth of this mutant was inhibited by DSX.

FpvB = assay: Western blot of FLAG-tagged FpvB expression after compound treatment; conditions: WT PA14 fpvB-FLAG; 10 μg/mL siderophores, 64 μg/mL DSX, 10:90
PA14 ΔpvdA ΔpchA mutant = assay: Growth curves with DSX and siderophores, ΔpvdA ΔpchA; conditions: DSX 64 μg/mL, 20 h
Experimental: as §5, §7

[3] = tested on: PA14 ΔfpvA ΔfpvB ΔfiuA ΔfoxA quadruple mutant; assay: Growth phenotypes of deletion mutants, quadruple mutant; conditions: 64 μg/mL DSX, 10 μg/mL siderophores, 10:90
From the text: as §1, §2

PA14 ΔfpvA mutant [4] = assay: MIC assay, ΔfpvA mutant; conditions: Pseudomonas aeruginosa, PA14
Experimental: as §4

[5] = tested on: PA14 ΔfpvA ΔfpvB pHERD20T-fpvA; assay: MIC assay, ΔfpvA ΔfpvB complemented with fpvA; conditions: complementation with fpvA, arabinose induction
Experimental: as §3, §4

PA14 ΔfpvA ΔfpvB mutant [6] = assay: MIC assay, ΔfpvA ΔfpvB mutant; conditions: Pseudomonas aeruginosa, PA14
Experimental: as §4

PA14 ΔfpvA ΔfpvB mutant [7] = assay: Growth curves with DSX and siderophores, ΔfpvA ΔfpvB; conditions: DSX 64 μg/mL, pyoverdine 10 μg/mL, 20 h
Experimental: as §5, §6, §7

PA14 ΔfpvB mutant = assay: Growth curves with DSX and siderophores, ΔfpvB; conditions: DSX 64 μg/mL or pyoverdine 10 μg/mL alone, 20 h, 10:90
Experimental: as §5, §6

PA14 = assay: Growth curves with DSX and siderophores, WT PA14; conditions: DSX 64 μg/mL or pyoverdine 10 μg/mL alone, 20 h, 10:90
Experimental: as §5, §6

[8] = tested on: PA14 ΔfpvA ΔfpvB pHERD20T-fpvA T660C; assay: MIC assay, ΔfpvA ΔfpvB expressing FpvA T660C; conditions: 10:90 + 2% arabinose
From the text: FpvA T660C was used previously to measure pyoverdine-Fe^3+ binding affinity ([32]). However, this technique has not been applied to FpvB. A high-confidence structural model of FpvB was generated using AlphaFold2 ([33], [34]) and aligned with the structure of FpvA (PDB accession number 2O5P) to identify a residue suitable for labeling, with the assumption that FpvA and FpvB undergo similar conformational changes upon ferrisiderophore binding (see Fig. S3A through C in the supplemental material). Based on this analysis, FpvB R648 was mutated to Cys. FpvA T660C and FpvB R648C were each expressed in trans in the ΔfpvA ΔfpvB mutant. […] We could also detect expression by fluorescence microscopy with peripheral labeling consistent with expression in the outer membrane (Fig. 3B). Labeling was undetectable in empty vector and WT controls (see Fig. S4A in the supplemental material).
Supplementary file : FIG S3 Overlay of FpvA and FpvB showing residues mutated to cysteine for labeling with maleimide dyes. FpvA (PDB accession number 2O5P) was superimposed with the AlphaFold2 model of FpvB. FpvA is shown in beige and FpvB in blue. […]
MIC assays were conducted as previously described ([13], [14]). […] The next day, the OD600 was determined with a plate reader (Thermo Scientific) and normalized to percent of growth of the vehicle control after subtracting the OD600 from blank media.

[9] = tested on: PA14 ΔfpvA ΔfpvB pHERD20T-fpvA; assay: Checkerboard assay TS and siderophores, FpvA expressed; conditions: 10:90 + 2% arabinose
From the text: We investigated this hypothesis by treating the ΔfpvA ΔfpvB mutant complemented with fpvA or fpvB with TS and pyoverdine-Fe^3+. If pyoverdine competes with TS for the same binding site in the transporter, a reduction in TS susceptibility would be expected, as competition would decrease entry of the antibiotic into the cell. TS susceptibility decreased >8-fold with increasing concentrations of pyoverdine-Fe^3+ when FpvA was expressed (see Fig. S2A in the supplemental material).
Supplementary file : FIG S2 Checkerboard assays of the PA14 ΔfpvA ΔfpvB strain complemented with fpvA and fpvB in trans with TS and siderophores. […] Checkerboards of the PA14 ΔfpvA ΔfpvB pHERD20T-fpvB strain with TS and enterobactin (G), ferrioxamine E (H), and arthrobactin (I). Results are averaged from three independent biological replicates. Cells in the assay were grown in 10:90 + 2% arabinose. Download FIG S2, EPS file, 2.2 MB.
Checkerboards (8 rows by 8 columns) were conducted as previously described in a 96-well plate (Nunc) ([13], [14]). TS at 75× the final concentration dissolved in DMSO was added in columns from bottom to top in increasing concentrations. Siderophores at 75× the final concentration dissolved in DSMO were added from in rows from left to right in increasing concentrations. Four columns were used for vehicle controls (DMSO) and sterile controls. […] Plates were sealed to prevent evaporation and incubated at 37°C overnight in a shaking incubator (200 rpm). The next day, the OD600 was determined with a plate reader (Thermo Scientific) and normalized to percent of growth of the vehicle control (DMSO) after subtracting the OD600 from blank media.

[10] = tested on: PA14 mutant combinations that include ΔfoxA; assay: Growth phenotypes of deletion mutants, ΔfoxA combinations; conditions: any mutant combination with ΔfoxA; 10 μg/mL ferrioxamine E, 10:90
From the text: as §1, §2

Compound	growth in the presence of compound (PA14 ΔfpvA mutants)	growth with DSX [1]	growth versus control (PA14 ΔfpvA mutant [2])	stimulation of FpvB expression (FpvB)	growth versus control (PA14 ΔpvdA ΔpchA mutant)	growth in the presence of compound [3]	MIC (PA14 ΔfpvA mutant [4]) [µg/mL]	growth with DSX [5]	MIC (PA14 ΔfpvA ΔfpvB mutant [6]) [µg/mL]	growth versus control (PA14 ΔfpvA ΔfpvB mutant [7])	growth versus control (PA14 ΔfpvB mutant)	growth versus control (PA14)	growth with DSX [8]	effect of siderophore on TS susceptibility [9]	growth in the presence of compound [10]
O=C(O)c1ccc(-n2nc(-c3ccccc3O)nc2-c2ccccc2O)cc1 [DSX, deferasirox]	unable to grow	could not restore growth	inhibited growth	None of the compounds stimulated expression	inhibited	failed to grow	8 (≈ 21.4 µM)	restored growth	8 (≈ 21.4 µM)	inhibited	growth was similar between the control and DSX conditions	growth was similar between the control and DSX conditions	restored growth with DSX		
O=C1CCC(=O)N(O)CCCCCNC(=O)CCC(=O)N(O)CCCCCNC(=O)CCC(=O)N(O)CCCCCN1 [ferrioxamine E]						failed to grow								None of those siderophores reduced TS susceptibility	inhibited
